Measurements published in US9920295B2, “Bioreactor for isolation of rare cells and methods of use” (The Trustees of the University of Pennsylvania, priority 2012, dated 2018).

Legend:
[1] = tested on: SCID-repopulating cells in NSG mice; test: Engraftment in NSG mice and limiting dilution analysis; conditions: mouse, in vivo
Description: BM-derived CD34^+ cells were cultured in SCF and Tpo (100 ng/ml each) for 4 days and treated under control conditions or Bleb (20 μM) for 3 days. The cells were injected intra-tibially into sub-lethally irradiated (250 rads) 6-10-week-old NSG mice within 24 hr after irradiation. Engraftment was assessed by analysis of blood or bone marrow using anti-mouse and anti-human CD47 antibodies using flow cytometry. The mice were sacrificed after sixteen weeks post-transplantation. For secondary engraftment, 50% of the bone marrow from femurs and tibias from each mouse was transplanted into one sub-lethally irradiated NSG mouse. 16 weeks after transplantation, blood and bone marrow were harvested from the mice and analyzed by flow cytometry. All animal experiments were done in accordance with institutional guidelines approved by the ethical committee from the University of Pennsylvania. The human repopulation HSC frequency was quantified by extreme limiting dilution analysis (ELDA) software (Hu and Smyth, 2009)

[2] = tested on: CD34+-derived cells; test: DNA microarray transcriptional profiling; format: cell-based, human
Description: Total RNA was extracted from cells using trizol and isolated by RNeasy (Qiagen) according to manufacturer's protocol. Total RNA was amplified and converted to cDNA using WT-Ovation Pico kit (NuGen) and converted to ST-cDNA, fragmented and biotinfunctionalized using WT-Ovation Exon Mudule (NuGen). Hybridization cocktails were prepared at 45.4, 15.1 and 7.6 ng/μl ST-cDNA and mixed with Eukaryotic Hybridization Controls (GeneChip) at proportional concentrations. Each sample was interrogated by sequential hybridization, rinse and scan cycles on a single Human Gene 1.0 ST DNA microarray (Affymetrix), from low to high concentration, and followed by two rinse-scan cycles in which no sample was added. In each experiment the scanned intensities that were obtained from all samples, five scans per array, were mutually RMA-summarized to transcription clusters gene levels. Log-base-2 fold changes were calculated for each scan separately relative to the mean Bleb-treated and non-treated CD34^+ and CD34^− intensities, gene by gene, and the average and standard deviation values (SD) were calculated across scans. Heat maps of selected genes summarize data from technical and biological replica. Average gene-expression fold changes±STD of HSC, MPP and CPP samples are shown in white. Log-base-2 fold changes of Bleb-treated and non-treated CD34^+ and CD34^− were averaged from two biologically independent experiments and are shown±SD. The particular fold-changes are color coded on a logarithmic scale that is defined per each heat map. Color-coded gene symbols represent the absolute gene expression levels of the biologically-replicated averages of CD34^+ non-treated intensities. Gene expression levels are coded <=5 (green) to >=10 (red) on a log-base-2 scale. Samples and genes were clustered by Pearson Correlation (MeV). Dendograms represent the correlative proximity of log-base-2 gene expression fold changes. Mean gene expression levels were calculated by averaging across five array scans. Log-base-2 gene expression fold changes were calculated relative to the mean Bleb-treated and non-treated CD34^+ and CD34^− intensities, gene by gene.

[3] = tested on: CD34+-derived cells; test: Apoptosis by cleaved caspase-3 intracellular flow cytometry and Annexin-V; format: cell-based, human; conditions: cleaved caspase-3 and Annexin-V+
Description: Cells were fixed with 4% paraformaldehyde in PBS for 10 min, washed with PBS and resuspended in 0.1% saponin in HBSS (staining medium). The samples were then stained with antibodies against cytoplasmic antigens, including NMM-IIA (Sigma), NMM-IIB, phospho-NMM-IIA and caspase-3 (all from Cell Signaling Technology) for 30 min at room temperature. In some cases, cells were concurrently stained with PE anti-CD34 or anti-human CD38 for subpopulation analysis. Cells were then washed and stained with anti-rabbit or mouse secondary antibodies conjugated with Alexa 647 (Invitrogen) for 30 min, followed by analysis on FACSCalibur.

[4] = tested on: CD34+-derived cells (HSC, MPP, CPP); test: HSC/P subpopulation analysis by flow cytometry; format: cell-based, human
Description: Freshly purified bone marrow-derived human CD34^+ cells were obtained from either the Penn Xenograft Core Facility or AllCells (Emeryville, Calif.). Cells from at least 20 different donors were used in this study. Purity of the samples (>98%) was confirmed by flow cytometry with monoclonal antibody against human CD34. All experiments were performed in HSC expansion media (StemLine, Sigma) supplemented with 1× antibiotics, 20% BIT 9500 Serum Substitute (StemCell Technologies), 2 mM […] (Gibco) and the following human recombinant cytokines: SCF (100 ng/ml) and Tpo (100 ng/ml). In some occasions, the media was also supplemented by G-CSF (100 ng/ml), epidermal growth factor (EGF, 100 ng/ml), transforming growth factor beta 1 (TGF-beta1, 100 ng/ml), erythropoietin (EPO, 1 U/ml) and interleukin-3 (IL-3, 10 ng/ml). All cytokines were purchased from R&D Systems. After cells were cultured for 4 days, they were treated with different doses of cellular contractility inhibitors, including (±)-Blebbistatin (Bleb) (EMD Biosciences) and/or CH-223191 (Sigma) for indicated durations of up to 3 days. Cells were cultured at 37° C. in 5% CO2.
Surface marker analysis for HSC/Ps was done on either a LSR II flow cytometer or FACSCalibur (Becton Dickinson). […] Cells isolated from the bone marrow stained for 1 hr with APC anti-mouse CD47 (miap301, AbD Serotec), FITC anti-human CD47 (BD Biosciences), and PE anti-human CD11b, PE anti-human CD19 (both from BD Biosciences), or PE anti-human Glycophorin A (Invitrogen). Plts and RBCs were analyzed by staining with PE anti-mouse CD41 (eBioscience) and FITC anti-human CD41 (eBioscience) for 20 min, followed by analysis on FACSCalibur on log forward and side scatter scales.

[5] = biological target: T1, αIIbβ3 (Homo sapiens, UniProt P05106+P08514); test: Platelet activation assay, PAC-1 binding; format: cell-based; conditions: thrombin 1 U/mL
T1 construct: endogenous in cells; host or cells: platelet-like fragments from megakaryocytes cultured from human bone-marrow CD34+ cells
Description: For platelet-activation assays, platelet-sided fraction isolated from either MK culture or NSG blood was resuspended in Tyrode's buffer supplemented with Mg^2+ and Ca^2+, and incubated with indicated agonists for 15 min at 37° C., followed by staining with FITC-conjugated anti-human P-selectin or PAC-1 antibody (BD Bioscience), APC-conjugated anti-human CD41, and in the case of xenograft samples, PE-conjugated anti-mouse CD41 for 15 min at room temperature, followed by fixation with 1.5% paraformaldehyde. Antibody-stained samples were then analyzed by flow cytometry. Platelet number was evaluated by mixing each sample with a defined number (˜10,000 beads per sample) of APC-conjugated beads (BD Bioscience). The number of platelets per sample was evaluated by: number of CD41^+ events/number of APC-bead events multiplied by total known number of APC-bead added per sample.

T1 sequence (P08514 32-887 limits assumed): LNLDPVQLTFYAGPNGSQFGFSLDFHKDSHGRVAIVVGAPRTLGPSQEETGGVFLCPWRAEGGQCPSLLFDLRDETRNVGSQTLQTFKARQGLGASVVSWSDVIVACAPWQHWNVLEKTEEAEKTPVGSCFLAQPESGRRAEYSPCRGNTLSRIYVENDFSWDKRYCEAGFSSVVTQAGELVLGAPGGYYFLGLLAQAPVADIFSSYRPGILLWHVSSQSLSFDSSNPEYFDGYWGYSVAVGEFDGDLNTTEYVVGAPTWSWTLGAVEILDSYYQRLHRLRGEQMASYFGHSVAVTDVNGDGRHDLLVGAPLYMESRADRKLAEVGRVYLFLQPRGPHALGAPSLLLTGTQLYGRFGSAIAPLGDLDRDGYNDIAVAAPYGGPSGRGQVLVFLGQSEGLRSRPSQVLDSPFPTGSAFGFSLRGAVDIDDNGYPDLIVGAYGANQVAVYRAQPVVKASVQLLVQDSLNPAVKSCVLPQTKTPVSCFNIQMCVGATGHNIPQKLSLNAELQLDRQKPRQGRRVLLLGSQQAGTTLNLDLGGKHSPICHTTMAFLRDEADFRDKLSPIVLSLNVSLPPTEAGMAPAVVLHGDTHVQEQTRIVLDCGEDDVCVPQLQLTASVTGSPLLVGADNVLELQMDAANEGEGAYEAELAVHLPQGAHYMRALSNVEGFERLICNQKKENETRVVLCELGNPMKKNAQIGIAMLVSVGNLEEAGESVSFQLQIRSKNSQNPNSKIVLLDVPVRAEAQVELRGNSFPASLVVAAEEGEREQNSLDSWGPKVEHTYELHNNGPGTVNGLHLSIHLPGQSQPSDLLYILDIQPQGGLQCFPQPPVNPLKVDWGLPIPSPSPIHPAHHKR
T1 sequence (P08514 891-1039 partner limits assumed): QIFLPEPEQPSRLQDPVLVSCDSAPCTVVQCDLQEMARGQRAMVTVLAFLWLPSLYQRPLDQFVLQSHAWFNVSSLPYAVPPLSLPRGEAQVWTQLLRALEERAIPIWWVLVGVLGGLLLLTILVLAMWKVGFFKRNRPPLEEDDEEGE
T1 sequence (P05106 27-788): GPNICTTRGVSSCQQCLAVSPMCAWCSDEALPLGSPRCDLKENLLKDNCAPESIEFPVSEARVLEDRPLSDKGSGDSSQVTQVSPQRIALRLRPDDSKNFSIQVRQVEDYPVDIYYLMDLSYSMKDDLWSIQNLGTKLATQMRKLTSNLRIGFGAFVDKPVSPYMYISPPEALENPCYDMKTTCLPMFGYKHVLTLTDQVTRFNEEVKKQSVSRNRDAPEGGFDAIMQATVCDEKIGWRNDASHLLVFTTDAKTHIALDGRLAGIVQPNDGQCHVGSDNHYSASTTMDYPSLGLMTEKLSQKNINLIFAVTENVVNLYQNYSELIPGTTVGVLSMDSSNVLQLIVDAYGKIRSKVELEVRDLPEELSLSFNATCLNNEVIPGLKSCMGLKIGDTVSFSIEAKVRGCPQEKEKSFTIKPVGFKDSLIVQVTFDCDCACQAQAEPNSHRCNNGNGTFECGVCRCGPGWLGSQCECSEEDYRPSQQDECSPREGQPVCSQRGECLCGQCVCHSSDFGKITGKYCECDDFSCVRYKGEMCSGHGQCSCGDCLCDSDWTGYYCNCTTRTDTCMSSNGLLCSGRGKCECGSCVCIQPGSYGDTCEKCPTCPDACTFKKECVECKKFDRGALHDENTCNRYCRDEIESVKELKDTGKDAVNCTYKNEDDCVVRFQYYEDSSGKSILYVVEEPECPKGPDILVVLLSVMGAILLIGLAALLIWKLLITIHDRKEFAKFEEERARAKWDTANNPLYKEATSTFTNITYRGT

`Cc1ccc2c(c1)C(=O)C1(O)CCN(c3ccccc3)C1=N2` (racemic) [blebbistatin, (±)-blebbistatin] was tested, and the “increase in HSC frequency in terms of total cell number injected” value [1] was 4 fold, the “NMM-IIA mRNA lower in drug-treated CD34+ cells” value [2] was about 30% and the “reduction of cyclin D1 and D3 (CCND1 and 3) expression” value [2] was 2 fold. For the same compound, the “SCF receptor (KIT) expression vs untreated CD34+ cells” value ([2]; treated CD34+ cells) was 1.8 fold, the “upregulation of CD133 (PROM1) and CD34 above pooled average” value ([2]; treated CD34+ cells in culture) was “more than 2 fold” and the increase in apoptosis [3] was “about 2 fold”. The “change in primitive HSC cell number” value [4] was under 50%, the “enrichment for LT-HSCs” value ([4]; 20 μM, 2N cells) was 15.6±4.1 fold and the IC50 ([4]; 2N cells, n≥4 donors, read-out: CPP and MPP number IC50) was about 10.5 µM. The CPP depletion ([4]; 3-day treatment) was 31 fold, the “CPP depletion, range” value ([4]; 3-day treatment) was 15-48 fold and the “HSC enrichment, average” value ([4]; 3-day treatment) was 16 fold. For the same compound, the “HSC enrichment, range” value ([4]; 3-day treatment) was 5-24 fold, the MPP depletion ([4]; 3-day treatment) was 1.8 fold and the “MPP depletion, range” value ([4]; 3-day treatment) was 1.3-2.3 fold. The “HSC number, mean” value ([4]; normalized to initial cell input) was 646±77, the “HSC-to-MPP ratio vs untreated cells” value ([4]; on plastic) was about 4 fold and the Ki ([4]; read-out: inhibition constant Ki, MPPs and CPPs) was about 10.5 µM. The “PAC-1 binding of platelets derived from drug-exposed MKs” value [5] was “normal PAC-1 binding”.
